In the NIST ThermoML archive (doi:10.1016/j.fluid.2016.02.035):

Assay: mn = molality of the nth substance listed, in mol/kg
Settings: 101 kPa, Liquid; for speed of sound: Sing-around technique in a fixed-path interferometer; for mass density: Vibrating tube method

CCCC[N+](CCCC)(CCCC)CCCC.[Br-] [tetrabutylammonium bromide] + O
Settings | mass density, 308.15 K [kg/m3] | mass density, 313.15 K [kg/m3] | mass density, 318.15 K [kg/m3] | speed of sound, 308.15 K [m/s] | speed of sound, 313.15 K [m/s] | speed of sound, 318.15 K [m/s]
m1 = 0.0015 | 994.069 | 992.252 | 990.25 | 1520.2 | 1529.2 | 1536.8
m1 = 0.0047 | 994.133 | 992.309 | 990.268 | 1520.9 | 1529.9 | 1537.4
m1 = 0.0061 | 994.141 | 992.322 | 990.285 | 1521.2 | 1530.2 | 1537.6
m1 = 0.013 | 994.299 | 992.471 | 990.457 | 1522.5 | 1531.4 | 1538.7
m1 = 0.0183 | 994.411 | 992.571 | 990.535 | 1523.7 | 1532.4 | 1539.7
m1 = 0.026 | 994.559 | 992.724 | 990.703 | 1525.1 | 1533.8 | 1540.9
m1 = 0.031 | 994.67 | 992.829 | 990.802 | 1526.1 | 1534.7 | 1541.8
m1 = 0.0492 | 995.05 | 993.186 | 991.142 | 1529.5 | 1537.8 | 1544.6
m1 = 0.0796 | 995.683 | 993.797 | 991.727 | 1535.4 | 1543.2 | 1549.6
m1 = 0.0997 | 996.092 | 994.191 | 992.105 | 1539.2 | 1546.6 | 1552.7
m1 = 0.1118 | 996.35 | 994.435 | 992.338 | 1541.5 | 1548.8 | 1554.6
m1 = 0.1291 | 996.709 | 994.777 | 992.665 | 1544.7 | 1551.7 | 1557.3
m1 = 0.1464 | 997.075 | 995.128 | 992.999 | 1547.8 | 1554.6 | 1559.9
m1 = 0.1626 | 997.408 | 995.446 | 993.303 | 1550.7 | 1557.2 | 1562.3
m1 = 0.1952 | 998.092 | 996.099 | 993.923 | 1556.3 | 1562.3 | 1567
m1 = 0.2309 | 998.837 | 996.807 | 994.602 | 1562.5 | 1567.9 | 1572
m1 = 0.2732 | 999.711 | 997.64 | 995.396 | 1569.5 | 1574.3 | 1577.8
m1 = 0.3073 | 1000.41 | 998.309 | 996.027 | 1574.9 | 1579.2 | 1582.3
m1 = 0.3449 | 1001.16 | 999.017 | 996.7 | 1580.8 | 1584.5 | 1587.1
m1 = 0.5437 | 1005.11 | 1002.75 | 1000.24 | 1608.6 | 1609.5 | 1609.2
m1 = 0.7712 | 1009.28 | 1006.68 | 1003.95 | 1634.4 | 1632 | 1629
